The subject of assay [1] is γ-H2AX. Kind of assay: Immunofluorescence staining for DNA damage marker γ-H2AX. It is filed as cell-based, human. Particulars: U87-MG, 2 μM, 24 h. How it is done: (§1) U87-MG cells were plated at a concentration of 50,000 cells/well onto precoated poly-D-lysine (PDL) coverslips (Neuvitro) in 24-well plates (Falcon) and allowed to adhere overnight. Medium was removed and replaced with treatment-laced media normalized to DMSO, and cells were treated for the indicated timepoints. At the time of collection, cells were washed with PBS and fixed with 4% paraformaldehyde without methanol (EMS) or 100% methanol (Fischer). Coverslips were washed with Tween20-containing PBS (PBST; Fischer). Following permeabilization with 0.5% Triton X-100 in PBS (Fischer), coverslips were blocked for 1 h at room temperature in IF Buffer (0.05% azide, 0.2% Triton X-100, 2% Normal Goat Serum or, for 8-OHG, Normal Donkey Serum). The following primary antibodies were used for 1 hour at room temperature unless specified: AlexaFluor 488 pre-conjugated anti-γ-H2AX (N1-431) mouse monoclonal (30 minutes; BD Biosciences), anti-cleaved caspase 3 (Asp175) rabbit polyclonal (Cell Signaling), anti-SQSTM1/p62 (D-3) mouse monoclonal (Santa Cruz), anti-8-Hydroxyguanosine goat polyclonal (1:200; Millipore), anti-LAMP1 (D4O1S) mouse monoclonal (O/N at 4° C.; Cell Signaling), anti-BNIP3L/Nix (D4R4B) rabbit monoclonal (O/N at 4° C.; Cell Signaling), anti-FLAG (M2) mouse monoclonal (2 hours at 37° C.; Sigma-Aldrich). […]

Assay [2] deals with erg6Δ yeast. Description: Yeast dose response curves, control strains. It is filed as cell-based, Saccharomyces cerevisiae. The note with it: 30° C., 18 h, normalized to DMSO. As for the experimental part:
S. cerevisiae strains were plated at an OD600 of 0.05 in 96-well plates (Falcon) and treated with SC complete containing compound starting at 100 μM, followed by 2-fold serial dilutions to generate a 10-point range of concentrations normalized with DMSO; one row was treated with DMSO as a control. Yeast were incubated for 18 h. To process, the optical density was read using a Spectramax M2 (Molecular Devices) at a wavelength of 600 nm and normalized to DMSO. Each experiment was repeated 2-3 times with 4 technical replicates per experiment.
A high-throughput screen in Saccharomyces cerevisiae lacking a yeast homologue of NF1, IRA2 (ira2Δ) was developed and carried out to identify tool compounds that elicited synthetic lethality with NF1 loss (15). ira2Δ yeast have increased RAS-GTP, which results in increased MAPK and PKA signaling analogous to the pathways that are activated in NF1-deficient Schwann cells (17). […]
More than 5,100 structurally diverse compounds selected from and representative of a >340,000-compound library were screened. […] To determine whether Y102 was also effective in human tumor cells, the efficacy of Y102 was evaluated in two NF1-deficient human cancer cell line models of glioblastoma, U87-MG and U251-MG, and an NF1-deficient Neurofibromatosis type 1-associated MPNST cell line sNF96.2. […]

The subject of assay [3] is cleaved caspase-3. Description: Immunofluorescence staining for cleaved caspase-3. It is filed as cell-based, human. Particulars: U87-MG, 2 μM, 48 h. As for the experimental part: as §1
The test system of assay [4] is BNIP3L/Nix. Description: Western immunoblotting of BNIP3L/Nix. It is filed as cell-based, human. Particulars: U87-MG, 2 μM, 24 h, 20 μM QVD pre-treatment. How it is done:
U87-MG cells were plated at 500,000 cells/well in 6-well plates and allowed to adhere overnight (Falcon). Medium was removed and replaced with fresh medium containing drugs or compounds for the indicated timepoints. Cells were collected after treatment by washing with PBS, harvested with trypsin plus agitation to detach cells, pelleted in a centrifuge and resuspended in PBS to wash. Cells were transferred to 1.5 mL microcentrifuge tubes, pelleted, and resuspended in RIPA lysis buffer (50 mM Tris pH 8.0, 150 mM NaCl, 1% nonidet P40, 0.5% sodium deoxycholate, and 0.05% SDS) containing 1 mM NaVO4, 1 mM NaF, 1 mM phenylmethylsulfonyl fluoride, 0.1 μg/mL antipain, 1 μM aprotinin, 100 μM benzamidine HCl, 0.1 μg/mL leupeptin, 0.1 μg/mL pepstatin, and 0.1 μg/mL soybean trypsin inhibitor. Protein was quantified using a BCA assay kit (Pierce). 50 μg of protein was prepared in 1× Laemmli sample buffer (50 mM Tris pH 6.8, 0.02% w/v bromophenol blue, 2% w/v SDS, 10% v/v glycerol, 1% v/v beta-mercaptoethanol, 12.5 mM EDTA) and separated by SDS-PAGE on a 4-15% polyacrylamide gradient gel (Bio-Rad). […]

For assay [5], the system named is U87-MG cells. Description: β-Galactosidase senescence assay. It is filed as cell-based, human. The note with it: 2 μM, 72 h. How it is done:
U87-MG cells were plated at 100,000 cells/well and allowed to adhere overnight. Medium was removed and replaced with medium containing DMSO, 2 μM Y102, or 100 nM Doxorubicin for a total of 72 hours. Cells were collected and stained for β-galactosidase using the Senescence β-Galactosidase Staining Kit (Cell Signaling). 100 cells were counted per condition; graph represents results from triplicate experiments.

For the compound `Cn1cnnc1S/C=C/C(=O)c1ccc(F)cc1` [Y102], the “change in γ-H2AX expression” value in assay [1] was “no significant change”. Besides, the “effect on growth of control strains at concentrations inhibitory to erg6Δira2Δ yeast” value in assay [2] is “no effect”. Further, the “amount of cleaved caspase-3 versus vehicle control” value in assay [3] is “No difference”. Further, in assay [4], the “BNIP3L/Nix protein levels versus DMSO” value is on record as “little difference”. Besides, the “senescence (senescence-associated β-galactosidase)” value in assay [5] is listed as “no indication”.

The values are drawn from patent US20220326218A1, “COMPOSITION AND METHOD FOR INHIBITING BORC COMPLEX TO TREAT CANCERS WITH NF1 DEFICIENCY AND DYSREGULATED RAS SIGNALING” (THE TRUSTEES OF DARTMOUTH COLLEGE, priority 2019, published 2022).
